Non-standard residues stand in square brackets, D forms with d. No end group written: not given here. Cit = NC(=O)NCCC[C@H](N)C(=O)O

One experiment concerns C57Bl/6 mice. The experiment can be described thus: Glucose tolerance test in fasted C57Bl/6 mice after single IP peptide injection. In kind it is in vivo, mouse. Particulars: single IP 300 mg/kg, 2 g/kg glucose IP. On the procedure: Peptide may additionally be screened for the ability to lower glucose using methods illustrated in the EXAMPLES section, e.g., Example 31. For example, the ability to lower glucose can be evaluated using ing animal models, such as mice or rats. Mice, e.g., C57Bl/6 mice, fed a normal lab chow diet are injected IP with a peptide that is undergoing evaluation, e.g., at a does of 300 mg/kg, and the glucose levels in the blood are measured at a time period, e.g. 6 hours, following injection and compared to the levels of blood glucose in a control animal that received PBS. Alternatively, peptides may be screened for the ability to lower glucose as illustrated in Example 36. For example, 300 mg/kg peptide injected IP into to fasted animals and 3 h thereafter a glucose tolerance test is performed by injecting 2 g/kg glucose during which the glucose concentration is followed for 120 minutes. Peptides that have glucose lowering activity show statistically significant lowered glucose relative to controls. Typically, peptides lower glucose by at least 5%, often at least 10% or greater, relative to controls. Peptides may also be evaluated for glucose-lowering activity in animal models of obesity, e.g., DIO mice. Further, peptides may be evaluated for the ability to improve sensitivity to insulin, e.g., as described in Example 31 of the EXAMPLES section.
This example illustrates that CS6253 and T6991-2 lower blood glucose concentrations upon glucose challenge in C57Bl/6 mice (FIG. 51). Fasted male C57Bl/6 mice on chow diet received a single intraperitonel (IP) injection of either vehicle alone or 300 mg/kg of lipid-free peptide, as described for safety studies in FIG. 5. Following treatment, a glucose tolerance test was performed via IP injection of 2 g/kg glucose. Blood was collected from the tail vein at the indicated times and blood glucose measured using a glucometer. Panels A and B— Blood glucose concentrations expressed as mass values over time following glucose challenge, with corresponding area under the curve, respectively. (Bar graph, panel B, bars from left to right are PBS, CS6253, T699102, 2, 4, 5, 6, and 9, respectively) Values are means±SD, n=4 mice per group.
Take “T8212-2: CS6253 analog with combination of leucine and isoleucine residues (L→I) (EV[Cit]SKLEEWLAAI[Cit]ELAEELLARLKS) [Peptide T8212-2]”: the “blood glucose upon glucose challenge” value is “poorly active in lowering blood glucose responses”.
Still for that read-out and setting: then “T8212-4: CS6253 analog with combination of leucine and isoleucine residues (L→I) (EV[Cit]SKLEEWIAAL[Cit]ELAEEILARLKS) [Peptide T8212-4]”, with “poorly active in lowering blood glucose responses”; and “T8212-5: CS6253 analog with combination of leucine and isoleucine residues (L→I) (EV[Cit]SKIEEWIAAL[Cit]ELAEEILARLKS) [Peptide T8212-5]”, with “poorly active in lowering blood glucose responses”.
Take “T8212-6: CS6253 analog with combination of leucine and isoleucine residues (L→I) (EV[Cit]SKIEEWLAAI[Cit]EIAEELLARLKS) [Peptide T8212-6]”: the “blood glucose upon glucose challenge” value was “poorly active in lowering blood glucose responses”.
In the case of “T8212-9: CS6253 analog with combination of leucine and isoleucine residues (L→I) (EV[Cit]SKIEEWIAAI[Cit]EIAEEIIARLKS) [Peptide T8212-9]”, the “blood glucose upon glucose challenge” value was “poorly active in lowering blood glucose responses”.

The target of the next experiment is T1, ABCA1 (Mus musculus, UniProt P41233).
T1 construct: treated (18 h) with a cAMP analog to induce ABCA1 protein expression; endogenous in cells; host or cells: J774 macrophages
T1 sequence (P41233 whole entry): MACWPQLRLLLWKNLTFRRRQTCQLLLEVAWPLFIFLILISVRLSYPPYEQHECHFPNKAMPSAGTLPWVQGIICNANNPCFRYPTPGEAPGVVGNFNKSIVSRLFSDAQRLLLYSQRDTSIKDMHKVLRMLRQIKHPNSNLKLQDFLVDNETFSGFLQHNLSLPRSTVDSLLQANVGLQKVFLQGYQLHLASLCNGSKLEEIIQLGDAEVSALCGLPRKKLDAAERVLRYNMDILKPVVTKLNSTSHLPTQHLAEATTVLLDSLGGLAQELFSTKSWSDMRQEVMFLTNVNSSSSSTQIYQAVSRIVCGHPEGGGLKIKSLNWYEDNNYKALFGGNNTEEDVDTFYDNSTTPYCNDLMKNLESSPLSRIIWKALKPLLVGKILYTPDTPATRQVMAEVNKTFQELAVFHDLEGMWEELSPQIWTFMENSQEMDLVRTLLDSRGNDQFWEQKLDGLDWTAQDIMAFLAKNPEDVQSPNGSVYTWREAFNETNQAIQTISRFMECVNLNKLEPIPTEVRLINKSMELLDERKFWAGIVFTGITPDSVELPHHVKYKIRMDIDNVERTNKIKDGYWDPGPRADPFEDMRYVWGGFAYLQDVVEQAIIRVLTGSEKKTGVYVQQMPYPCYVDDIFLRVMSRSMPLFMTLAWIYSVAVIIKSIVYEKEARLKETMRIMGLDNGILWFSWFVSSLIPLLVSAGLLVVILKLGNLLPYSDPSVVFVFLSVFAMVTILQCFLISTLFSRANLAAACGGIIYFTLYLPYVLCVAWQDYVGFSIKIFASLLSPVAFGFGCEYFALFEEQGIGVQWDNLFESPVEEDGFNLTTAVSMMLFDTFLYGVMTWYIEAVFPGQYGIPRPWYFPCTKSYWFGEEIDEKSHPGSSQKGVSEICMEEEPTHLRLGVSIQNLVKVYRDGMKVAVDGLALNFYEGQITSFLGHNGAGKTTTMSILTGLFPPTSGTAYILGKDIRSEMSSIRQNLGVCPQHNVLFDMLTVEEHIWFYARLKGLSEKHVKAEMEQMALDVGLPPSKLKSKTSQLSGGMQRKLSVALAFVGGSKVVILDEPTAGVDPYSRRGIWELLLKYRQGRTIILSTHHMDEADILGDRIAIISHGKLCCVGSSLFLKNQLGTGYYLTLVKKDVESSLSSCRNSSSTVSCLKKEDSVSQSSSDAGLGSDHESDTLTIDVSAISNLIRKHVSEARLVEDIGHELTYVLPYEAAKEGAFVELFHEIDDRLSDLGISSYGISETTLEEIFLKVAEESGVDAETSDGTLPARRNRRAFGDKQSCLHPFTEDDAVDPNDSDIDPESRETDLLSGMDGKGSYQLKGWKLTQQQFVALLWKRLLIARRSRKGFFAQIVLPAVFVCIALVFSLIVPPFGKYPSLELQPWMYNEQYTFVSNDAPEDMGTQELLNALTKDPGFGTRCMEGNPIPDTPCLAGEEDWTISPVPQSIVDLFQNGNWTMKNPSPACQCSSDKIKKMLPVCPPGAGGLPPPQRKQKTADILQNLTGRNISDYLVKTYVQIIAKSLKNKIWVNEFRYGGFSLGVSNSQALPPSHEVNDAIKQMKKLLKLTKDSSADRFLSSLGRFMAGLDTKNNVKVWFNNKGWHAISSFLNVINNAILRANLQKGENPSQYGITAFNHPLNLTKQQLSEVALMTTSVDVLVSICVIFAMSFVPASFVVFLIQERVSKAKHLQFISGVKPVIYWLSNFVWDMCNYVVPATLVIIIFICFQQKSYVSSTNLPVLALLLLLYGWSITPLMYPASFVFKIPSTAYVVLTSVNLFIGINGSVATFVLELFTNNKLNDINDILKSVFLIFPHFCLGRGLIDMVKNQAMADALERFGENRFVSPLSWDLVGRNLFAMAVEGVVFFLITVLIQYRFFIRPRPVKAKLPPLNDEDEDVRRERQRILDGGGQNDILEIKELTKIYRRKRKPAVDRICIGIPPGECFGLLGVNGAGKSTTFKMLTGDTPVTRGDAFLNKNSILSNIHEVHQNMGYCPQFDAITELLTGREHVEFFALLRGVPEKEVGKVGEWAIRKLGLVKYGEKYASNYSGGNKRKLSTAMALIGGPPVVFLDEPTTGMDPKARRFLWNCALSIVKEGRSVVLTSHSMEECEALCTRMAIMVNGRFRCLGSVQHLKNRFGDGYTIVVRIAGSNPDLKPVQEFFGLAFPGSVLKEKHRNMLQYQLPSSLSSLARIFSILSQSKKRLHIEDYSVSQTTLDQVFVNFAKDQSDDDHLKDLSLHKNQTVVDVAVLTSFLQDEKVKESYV
The experiment can be described thus: ABCA1 protein stabilization in J774 macrophages (Western blot). The note with it: J774 after cAMP, 6 h chase. In kind it is cell-based. The method, then: In some embodiments, the stabilization of ABCA is measured by direct measurement of ABCA (e.g., ABCA protein, or nucleic acid) using a cell based assay. Cell based assays can be performed in any cells in which ABCA is expressed (e.g., J774 macrophages), including cells which have been transfected with ABCA (e.g. HeLa cells). Any cell type can be used. For example, J774 macrophages can be used to assess relative ABCA1 protein levels in the presence and absence of polypeptides of the invention. The cells are first contacted with a compound that will induce ABCA (e.g., cAMP or a cAMP analogue such as, 8-bromo-cAMP) to upregulate ABCA (e.g., ABCA1) expression, then exposed to […] polypeptides of the invention in the absence of the cAMP stimulus to evaluate whether ABCA1 protein was stabilized or degraded. Relative levels of ABCA1 protein can be assessed using any means known in the art including, e.g., immunoblot analysis of cell membranes (Oram et al., J. Biol. Chem., 278:52379-52385 (2003)) or hybridization of nucleic acid probes to ABCA mRNA.
(FIG. 29). J774 macrophages were used for experiments. Panel A—Cells were labeled (48 h) with 3H cholesterol and treated with (right bars) and without (left bars) a cAMP analog to modulate ABCA1 expression. […]
For the substance “apoA-I: full-length native apolipoprotein A-I, lipid-free”, the “ABCA1 protein level (stabilization)” value is “maintained at high-levels”.

The values above are taken from patent US11434267B2, “Peptides having reduced toxicity that stimulate cholesterol efflux” (The Regents of the University of California, priority 2013, dated 2022).
